In patent US10751380B2, “Compound and method for treating spasms, inflammation and pain” (priority 2018, dated 2020):
Values joined by “and” are separate entries in the source; they are usually repeats but may differ in a detail not shown here. Equal entries are not always repeated. Where two headings read alike, the source gives them in different places.

Experiments:
[1] = man, cited from earlier work
[2] = cited from earlier work
[3] = cited from earlier work; remark: listed apart in the source
[4] = cited from earlier work; remark: listed apart in the source
[5] = target: μ-subtype opioid receptor (MOR) (Homo sapiens, UniProt P35372); conditions: cited from earlier work
[6] = 2 mg/mL; cited from earlier work
[7] = animal studies, compared with codeine; cited from earlier work
[8] = cited from earlier work; remark: listed apart in the source
[9] = cited from earlier work; remark: listed apart in the source
[10] = cited from earlier work; remark: listed apart in the source
[11] = cited from earlier work; remark: listed apart in the source
[12] = cited from earlier work; remark: listed apart in the source
[13] = mice, cited from earlier work
[14] = 20 mg of THC and 120 mg of codeine; cited from earlier work
[15] = cited from earlier work; for analgesic effect versus placebo: 5 mg of THC and 50 mg of codeine
[16] = dogs, cited from earlier work
[17] = cited from earlier work; remark: listed apart in the source
[18] = 50 mg of THC daily, P<0.01; cited from earlier work
[19] = oral, dissolved in sesame oil, cited from earlier work
[20] = monkeys, up to 9000 mg/kg THC; cited from earlier work
[21] = cited from earlier work; for excretion: as acid metabolites
[22] = Acute oral toxicity of THC in rats (Thompson 1973); conditions: 150 lb., female or male, respectively
[23] = doses of 15 and 20 mg; cited from earlier work
[24] = topical; cited from earlier work
[25] = of 750 courses of oral therapy; cited from earlier work
[26] = mice, oral administration; cited from earlier work
[27] = mice, subcutaneous; cited from earlier work
[28] = by mouth, immediate-release formulation; cited from earlier work

μ-subtype opioid receptor (MOR), sequence (P35372 whole entry): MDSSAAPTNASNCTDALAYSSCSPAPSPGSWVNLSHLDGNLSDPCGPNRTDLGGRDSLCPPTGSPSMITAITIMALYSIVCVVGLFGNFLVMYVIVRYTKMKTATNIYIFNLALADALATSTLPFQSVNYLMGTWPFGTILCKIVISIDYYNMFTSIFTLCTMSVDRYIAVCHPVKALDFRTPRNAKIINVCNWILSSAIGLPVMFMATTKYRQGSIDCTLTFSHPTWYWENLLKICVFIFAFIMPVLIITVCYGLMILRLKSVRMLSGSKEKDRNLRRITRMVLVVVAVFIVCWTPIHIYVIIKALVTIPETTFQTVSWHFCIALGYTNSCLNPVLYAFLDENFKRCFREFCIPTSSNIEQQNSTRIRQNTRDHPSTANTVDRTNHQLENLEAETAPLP

CC[C@@H]1CN2CCc3c([nH]c4cccc(OC)c34)[C@H]2C[C@@H]1/C(=C\OC)C(=O)OC (stereo in doubt) [mitragynine, (aE,2S,3S,12bS)-3-ethyl-1,2,3,4,6,7,12,12b-octahydro-8-methoxy-α-(methoxymethylene)-indolo[2,3-a]quinolizine-2-acetic acid methyl ester]
urine excretion of unchanged form ([1]; 24-hour period): 0.14%
apparent volume of distribution ([1]; oral Kratom tea, nine subjects): 38.04 ± 24.32 L/kg
terminal half-life ([1]; oral Kratom tea, nine subjects): 23.24 ± 16.07 h
time to reach the maximum plasma concentration ([1]; oral Kratom tea, nine subjects): 0.83 ± 0.35 h
2-deoxy-D-glucose-stimulated gastric acid secretion ([2]; administration into fourth ventricle of anesthetized rats, reversed by naloxone): inhibition of 2-deoxy-D-glucose-stimulated gastric acid secretion in a dose dependent manner
basal gastric acid secretion ([2]; administration into the lateral ventricle): did not alter
water solubility [3]: < 100 µg/mL
log P [4]: 1.73 and 1.70
activity at the μ-subtype opioid receptor (MOR) [5]: partial agonists
nerve conduction, compound nerve action potential [6]: blocked the nerve conduction, amplitude and duration of compound nerve action potential
antinociceptive and cough-suppressant effects [7]: comparable to those of codeine
pKa ([8]; conventional UV): 8.11±0.11
pKa ([8]; microplate reader determination): 8.08±0.04
lethality ([9]; rats, 200 mg/kg): lethal effects
toxicity ([9]; rodents, dose levels of 800-900 mg/kg): no toxicity
total drug release in in vitro dissolution ([10]; simulated gastric fluid (SGF)): higher
drug release in in vitro dissolution ([10]; simulated intestinal fluid (SIF)): prolonged and incomplete

CC(=O)Oc1cc(O[C@H](C)CCCc2ccccc2)cc2c1[C@@H]1C[C@H](O)CC[C@H]1[C@H](C)N2 [Levonantradol]
analgesia versus placebo ([11]; 1.5, 2, 2.5, 3 mg intermuscular, all doses, at least P<0.05, no dose-response): significantly superior to placebo
patients reporting at least one side-effect ([11]; human, in vivo): 57%
analgesia versus placebo ([12]; human small RCTs): superior to placebo
patients reporting sedation ([12]; in vivo): almost half the patients

CCCCCc1cc(O)cc(O)c1 [olivetol]
dose of maximal effect in the PBQ test [13]: about 100 micrograms/kg

COc1ccc2c3c1O[C@H]1[C@@H](O)C=C[C@H]4[C@@H](C2)N(C)CC[C@@]341 [codeine]
analgesic effectiveness, THC versus codeine [14]: equally effective
analgesic effect versus placebo [15]: analgesic effect in comparison with placebo

CCCCCc1cc(O)c2c(c1)OC(C)(C)[C@@H]1CCC(C)=C[C@@H]21 [THC, (−)-(6aR,10aR)-6,6,9-trimethyl-3-pentyl-6a,7,8,10a-tetrahydro-6H-benzo[c]chromen-1-ol]
dose at which maximally effective in the PBQ test ([13]; dose that induced catalepsy): 10 mg/kg
minimum lethal oral dose ([16]; oral): more than 3 g/kg
death due to toxicity at maximum dose ([16]; up to 3000 mg/kg THC): no cases of death
patients who experienced sedation ([17]; 10 mg/m2): one-third
patients with euphoria ([17]; 10 mg/m2): majority of patients
patients' self-reports of nausea and vomiting versus placebo ([17]; 22 cancer patients resistant to conventional anti-emetics, oral): statistically superior to placebo
morphine requirement during active treatment [18]: significantly reduced
LD50 ([19]; female rats): 730 mg/kg
LD50 ([19]; male rats): 1270 mg/kg
death due to toxicity at maximum dose [20]: no cases of death
excretion ([21]; feces): 65-80%
bioavailability ([21]; healthy adults): 10-20%
biological half-life ([21]; in vivo): 1.6-59 h
metabolism ([21]; in vivo): mostly hepatic by CYP2C
bioavailability ([21]; inhalation): 10-35%
absolute bioavailability ([21]; oral administration, on an average): 13%
bioavailability ([21]; oral): 6-20%
biological half-life ([21]; orally administered dronabinol): 25-36 h
excretion ([21]; urine): 20-35%
LD50 scaled up to an adult human [22]: 50 to 86 g
analgesic effectiveness, THC versus codeine [14]: equally effective
pain relief versus placebo [23]: significantly superior to placebo
analgesic effect versus placebo [15]: analgesic effect in comparison with placebo
effect on spasticity ([15]; 5 mg of THC): significant effect on spasticity
antagonism of TPA-induced erythema of skin [24]: least effective
poor or partial response [25]: approximately 65%
analgesia versus placebo ([12]; human small RCTs): significantly superior to placebo
time of peak analgesia ([12]; human small RCTs): around 5 hours

C=C(C)[C@@H]1CCC(C)=C[C@H]1c1c(O)cc(CCCCC)cc1O [CBD, cannabidiol]
effectiveness at inhibition of PBQ-induced writhing among cannabinoids ([13]; oral, 100 micrograms/kg): most effective

CCCCCc1cc(O)c2c(c1)OC(C)(C)c1ccc(C)cc1-2 [CBN, cannabinol]
inhibition of PBQ-induced writhing ([13]; doses higher than 10 mg/kg): 40%
antagonism of TPA-induced erythema of skin [24]: least effective

CC[C@@H]1CN2CC[C@@]3(O)C(=Nc4cccc(OC)c43)[C@@H]2C[C@@H]1/C(=C\OC)C(=O)OC [7-hydroxymitragynine, (αE,2S,3S,7aS,12bS)-3-ethyl-1,2,3,4,6,7,7a,12b-octahydro-7a-hydroxy-8-methoxy-α-(methoxymethylene)-indolo[2,3-a]quinolizine-2-acetic acid methyl ester]
analgesic potency relative to morphine [26]: thirteen times more potent analgesic than morphine
gastrointestinal transit [27]: inhibition of the gastrointestinal transit
activity at the μ-subtype opioid receptor (MOR) [5]: partial agonists

COc1cccc(C2(O)CCCCC2CN(C)C)c1 (centres unmarked) [Tramadol]
onset of pain relief [28]: within an hour
